According to patent publication US20070293559A1, “Orally Administered Agent For Preventing Or Improving Dry Station Of Skin” (priority 2004, published 2007):

Columns and labels:
HOS:HR-1 mice [1] = experiment: Water content of the skin surface (SKICON-200) after oral ingestion in feed; assay type: in vivo; details: CE-2 feed containing 0.5% or 1% by weight of hydroxyproline, two to five weeks of feeding, relative to CE-2 group
Description: HOS:HR-1 mice (male, 5 weeks old, purchased from SLC Japan) were used in the test. The breeding conditions were that the room temperature was 22±2° C., the humidity was 35±15% and a feed and water were freely ingested.
Each test group consisted of 10 mice. A commercially available powder feed CE-2 (manufactured by Clea Japan) was fed to mice of the first group, CE-2 containing 0.5% by weight of trans-4-hydroxy-L-proline (hereinafter also referred to simply as hydroxyproline; manufactured by Kyowa Hakko Kogyo Co., Ltd.) was fed to mice of the second group, and CE-2 containing 1% by weight of hydroxyproline was fed to mice of the third group.
The water content of the skin surface on the back thigh upper portion of each mouse was measured with SKICON-200 (manufactured by IBS) every one week, from two weeks to five weeks after the start-up of the feeding of each feed. The measurement was conducted ten times for each mouse, and an average value of each mouse was obtained. Further, an average value of each test group was calculated.
The relative epidermal water content was calculated according to the following formula using the average value. Relative epidermal water content (%)=(A2/A1)×100 • A1: Epidermal water content of the first group • A2: Epidermal water content of the second or third group

HOS:HR-1 mice [2] = experiment: Transepidermal water loss (TEWL) in mice with dry skin induced by special feed; assay type: in vivo; details: for TEWL value: right rump, group average
Description: HOS:HR-1 mice (female, 4 weeks old, purchased from SLC Japan) were used in the test. The breeding conditions were that the room temperature was 22±2° C., the humidity was 50±5% and a feed and water were freely ingested.
Each test group consisted of 10 mice. A commercially available powder feed CE-2 was fed to mice of the first group, a special feed (manufactured by Nippon Nosan Kogyo K.K.) was fed to mice of the second group, the special feed containing 0.5% by weight of hydroxyproline was fed to mice of the third group, and the special feed containing 1% by weight of hydroxyproline was fed to mice of the fourth group. The dry skin was induced in HOS:HR-1 mice by feeding of the special feed (The journal of international medical research pharmacology, 32, 392-399 (2004)).
A transepidermal water loss (TEWL) value of the right rump of each mouse was measured as an index of a barrier function of stratum corneum at the start-up of the feeding of each feed, after four weeks and after six weeks using Tewameter TM210 (Courage+Khazaka electronic GmbH, Germany), and an average value of each group was calculated.

Compound: O=C(O)[C@@H]1C[C@@H](O)CN1 [hydroxyproline, trans-4-hydroxy-L-proline]
- water content of the skin (relative epidermal water content, FIG. 1) (HOS:HR-1 mice [1]): markedly improved
- transepidermal water loss, t-test in comparison with the second group (HOS:HR-1 mice [2]; fourth group (1% hydroxyproline in special feed), risk rate of less than 5% defined as significant): significant difference
- TEWL value (HOS:HR-1 mice [2]; fourth group: special feed containing 1% by weight of hydroxyproline, feeding period 0 week (start-up)): 5.07 g/m^2/hour
- TEWL value (HOS:HR-1 mice [2]; fourth group: special feed containing 1% by weight of hydroxyproline, feeding period 4 weeks): 25.07 g/m^2/hour
- TEWL value (HOS:HR-1 mice [2]; fourth group: special feed containing 1% by weight of hydroxyproline, feeding period 6 weeks): 25.40 g/m^2/hour
- barrier function of stratum corneum (HOS:HR-1 mice [2]; oral ingestion of hydroxyproline): effect of improving the barrier function of stratum corneum
- increase in transepidermal water loss (HOS:HR-1 mice [2]; third and fourth groups (0.5% and 1% hydroxyproline in special feed) versus second group (special feed)): suppressed dependently on the concentration
- TEWL value (HOS:HR-1 mice [2]; third group: special feed containing 0.5% by weight of hydroxyproline, feeding period 0 week (start-up)): 4.99 g/m^2/hour
- TEWL value (HOS:HR-1 mice [2]; third group: special feed containing 0.5% by weight of hydroxyproline, feeding period 4 weeks): 29.80 g/m^2/hour
- TEWL value (HOS:HR-1 mice [2]; third group: special feed containing 0.5% by weight of hydroxyproline, feeding period 6 weeks): 29.04 g/m^2/hour
